Experimental data from ChEMBL document CHEMBL1201862, “PubChem BioAssay data set” (2004).
Blank lines part the entries; values can stand above or below the molecule they belong to. Activity calls are given as the source filed them.

Assays:
Cytochrome P450 1A2 [1] = molecular target: T1, Cytochrome P450 1A2 (Homo sapiens, UniProt P05177);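 note: PubChem cytochrome P450 panel assay, CYP1A2 panel member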
T1 sequence (P05177 whole entry): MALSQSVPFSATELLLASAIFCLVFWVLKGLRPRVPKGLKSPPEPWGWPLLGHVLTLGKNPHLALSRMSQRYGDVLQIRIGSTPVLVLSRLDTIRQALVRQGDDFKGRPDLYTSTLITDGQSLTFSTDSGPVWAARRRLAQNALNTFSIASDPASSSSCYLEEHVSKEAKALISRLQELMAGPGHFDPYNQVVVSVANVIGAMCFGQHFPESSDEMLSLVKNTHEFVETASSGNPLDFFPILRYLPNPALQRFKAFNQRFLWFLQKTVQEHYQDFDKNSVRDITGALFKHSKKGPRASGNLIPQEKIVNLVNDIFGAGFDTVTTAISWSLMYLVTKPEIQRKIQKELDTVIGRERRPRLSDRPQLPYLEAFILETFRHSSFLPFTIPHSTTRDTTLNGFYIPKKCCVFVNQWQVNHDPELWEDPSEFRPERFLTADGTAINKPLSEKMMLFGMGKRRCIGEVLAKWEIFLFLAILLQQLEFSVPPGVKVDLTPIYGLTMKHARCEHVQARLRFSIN

Cytochrome P450 3A4 = Cytochrome P450 3A4 (Homo sapiens, UniProt P08684);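 note: CYP3A4 tested as one member of a cytochrome P450 panel screen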
Chain of Cytochrome P450 3A4 (P08684 whole entry): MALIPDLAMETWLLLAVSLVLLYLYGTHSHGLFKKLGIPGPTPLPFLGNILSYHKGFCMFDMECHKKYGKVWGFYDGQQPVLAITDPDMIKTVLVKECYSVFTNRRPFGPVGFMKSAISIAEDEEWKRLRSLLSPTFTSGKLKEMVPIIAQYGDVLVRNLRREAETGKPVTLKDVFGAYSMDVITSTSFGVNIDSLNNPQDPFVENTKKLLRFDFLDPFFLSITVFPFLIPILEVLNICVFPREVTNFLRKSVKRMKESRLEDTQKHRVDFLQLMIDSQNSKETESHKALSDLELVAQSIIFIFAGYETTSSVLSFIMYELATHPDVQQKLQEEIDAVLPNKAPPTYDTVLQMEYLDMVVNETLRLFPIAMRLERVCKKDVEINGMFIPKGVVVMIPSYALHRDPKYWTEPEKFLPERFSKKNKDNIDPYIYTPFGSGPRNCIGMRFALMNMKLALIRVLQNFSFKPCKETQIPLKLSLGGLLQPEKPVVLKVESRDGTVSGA

Cytochrome P450 1A2 [2] = molecular target: T1, Cytochrome P450 1A2; remark: listed apart in the source
[3] = cytotoxicity in HEK-293T NF-kB-Luc cells, dose response, cytotoxicity control for B/T-cell NF-kB inhibitor project, cell-based, uHTS hits (AID 489019); type: functional;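 note: IC50 reflects cytotoxicity as loss of cell viability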
[4] = molecular target: T2, Heat shock factor protein 1 (Mus musculus, UniProt P38532); assay: inhibition of MG132-induced HSE-luciferase signal, confirmation, cell-based, NIH3T3, luminescence, dose retest (AID 2382); type: functional;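 note: NIH3T3 fibroblasts with HSF1-driven luciferase reporter stressed by proteasome inhibitor MG132; luminescence from HSF1-driven luciferase expression after 8 hours of MG132 stress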
T2 sequence (P38532 whole entry): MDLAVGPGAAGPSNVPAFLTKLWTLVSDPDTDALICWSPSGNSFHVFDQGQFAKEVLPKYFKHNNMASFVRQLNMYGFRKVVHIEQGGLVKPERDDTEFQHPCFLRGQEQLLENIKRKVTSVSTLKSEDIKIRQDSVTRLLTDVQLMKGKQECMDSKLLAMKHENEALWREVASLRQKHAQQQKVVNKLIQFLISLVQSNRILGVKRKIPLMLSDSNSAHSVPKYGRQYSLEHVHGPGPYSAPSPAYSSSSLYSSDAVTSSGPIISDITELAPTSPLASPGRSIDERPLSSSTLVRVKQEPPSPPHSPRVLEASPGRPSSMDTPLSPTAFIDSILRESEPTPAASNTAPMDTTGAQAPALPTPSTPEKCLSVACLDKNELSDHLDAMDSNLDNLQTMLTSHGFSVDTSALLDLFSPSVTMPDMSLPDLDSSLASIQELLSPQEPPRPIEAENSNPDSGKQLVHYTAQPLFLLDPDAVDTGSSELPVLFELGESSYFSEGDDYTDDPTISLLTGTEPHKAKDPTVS

[5] = non-specific cell cytotoxicity, dose response, cytotoxicity control for PAX8 inhibitor project, plate reader, dry powder samples (AID 743021); type: functional, cell-based
[6] = molecular target: T3, Microphthalmia-associated transcription factor (Homo sapiens, UniProt O75030); assay: TRPM1 promoter luciferase signal decrease, dose response, MITF inhibitor project, cell-based, SK-MEL-5, cherry-picked, set 3 (AID 493073); type: functional
T3 sequence (O75030 whole entry): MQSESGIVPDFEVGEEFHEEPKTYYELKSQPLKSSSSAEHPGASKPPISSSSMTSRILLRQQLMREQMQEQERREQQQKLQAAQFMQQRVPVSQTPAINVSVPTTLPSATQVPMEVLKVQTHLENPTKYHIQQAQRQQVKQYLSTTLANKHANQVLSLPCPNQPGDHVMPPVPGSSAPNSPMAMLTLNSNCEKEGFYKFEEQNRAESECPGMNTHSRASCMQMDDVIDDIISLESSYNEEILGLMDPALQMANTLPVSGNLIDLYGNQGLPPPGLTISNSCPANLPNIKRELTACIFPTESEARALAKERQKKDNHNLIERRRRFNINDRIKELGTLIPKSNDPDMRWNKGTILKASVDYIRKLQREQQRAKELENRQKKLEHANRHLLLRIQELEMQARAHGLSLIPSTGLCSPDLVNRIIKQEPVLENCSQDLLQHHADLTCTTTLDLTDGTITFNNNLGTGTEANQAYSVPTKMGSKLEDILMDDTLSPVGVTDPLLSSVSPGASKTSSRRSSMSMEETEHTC

[7] = human group III sPLA2 inhibitors, dose response, biochemical, QFRET, IC50 (AID 743457);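 note: green fluorescence rise as the enzyme cleaves BODIPY PC-A2 in liposomes; potency for inhibition of the enzyme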
Paired box protein Pax-8 = Paired box protein Pax-8 (Homo sapiens, UniProt Q06710); assay: inhibitors of PAX8-driven TPO luciferase reporter, dose response, RMG-I cells, cherry-pick (AID 687027); type: functional, cell-based;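 note: luciferase reporter driven by Pax8 target thyroperoxidase promoter measured by SteadyGlo luminescence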
Chain of Paired box protein Pax-8 (Q06710 whole entry): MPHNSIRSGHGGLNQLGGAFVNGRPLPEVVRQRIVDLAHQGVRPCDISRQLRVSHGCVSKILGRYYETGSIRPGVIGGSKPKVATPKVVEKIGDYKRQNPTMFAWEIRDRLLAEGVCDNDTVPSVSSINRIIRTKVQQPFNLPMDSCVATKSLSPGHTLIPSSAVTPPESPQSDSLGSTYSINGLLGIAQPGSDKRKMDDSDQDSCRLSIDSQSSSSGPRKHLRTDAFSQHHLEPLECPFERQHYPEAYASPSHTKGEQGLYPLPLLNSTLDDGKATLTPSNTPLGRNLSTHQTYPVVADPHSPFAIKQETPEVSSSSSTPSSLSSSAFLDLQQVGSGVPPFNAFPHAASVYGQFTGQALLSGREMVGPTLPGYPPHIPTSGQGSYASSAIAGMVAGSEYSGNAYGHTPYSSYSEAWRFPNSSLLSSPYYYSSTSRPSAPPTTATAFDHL

Jurkat = assay: antigen receptor-induced NF-kB inhibitors, dose response, Jurkat, luciferase reporter, luminescence, B- and T-cell (AID 489004); type: functional, cell-based; details: Homo sapiens;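 note: NF-kB luciferase reporter Jurkat cells stimulated with PMA plus ionomycin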

SMILES: COc1ccc(CCN(C)CCC[C@@](C#N)(c2cc(OC)c(OC)c(OC)c2)C(C)C)cc1OC
AC50 (Cytochrome P450 1A2 [1]): inactive

SMILES: C/N=c1\scc(-c2ccccc2F)n1/N=C/c1ccc[nH]1
IC50 [3]: > 80000 nM (inactive)
EC50 [4]: < 160 nM (active)
AC50 [5]: 44300 nM (active)
AC50 [6]: 19 nM (active)
IC50 [7]: 50600 nM (inactive)
AC50 (Paired box protein Pax-8): < 260 nM (active)
IC50 (Jurkat): 380 nM (active)

SMILES: CCC(=O)O[C@H](CC(=O)[O-])C[N+](C)(C)C
AC50 (Cytochrome P450 1A2 [1]): inconclusive

Now from value to molecule:

AC50 (Cytochrome P450 3A4): inconclusive
SMILES: Cn1ncc2c(Nc3cccc(C(=O)O)c3)ncnc21

AC50 (Cytochrome P450 1A2 [2]): 1260 nM (inconclusive)
AC50 (Cytochrome P450 3A4): inconclusive
SMILES: COC(=O)N1CCC2(CC1)CN(c1ccc(-c3ccccc3)cc1)C2
